Measured values taken from patent US12144864B2, “Tubulysins and protein-tubulysin conjugates” (Regeneron Pharmaceuticals, Inc., priority 2018, dated 2024).
Like-named read-outs stand apart in the source and are kept apart here.

How the values were obtained:
HCT15 cells = assay: cells; type: cell-based, human; details: HCT15 cells; for HCT-15 + verapamil % Kill / HCT-15 % Kill: maximum % cell killing
Procedure: (§1) To test the ability of the disclosed tubulysin payloads to kill human cell lines, an in vitro cytotoxicity assay was performed. In vitro cytotoxicity of the disclosed payloads, as well as reference compounds, were evaluated using the CellTiter-Glo Assay Kit (Promega, Cat #G7573), in which the quantity of ATP present is used to determine the number of viable cells in culture. For the assay, C4-2, HEK293, or T47D cells were seeded at 4000 cells/well on Nunclon white 96-well plates in complete growth medium (DME high glucose:Ham's F12 at 4:1, 10% FBS, 100 units/ml Penicillin, 100 ug/ml streptomycin, 53 ug/ml glutatmine, 10 ug/ml insulin, 220 ng/ml biotin, 12.5 pg/ml T3, 12.5 ug/ml Adenine, 4 ug/ml transferrin for C42 cells; DME high glucose, 10% FBS, 100 units/ml Penicillin, 100 ug/ml streptomycin, 53 ug/ml glutatmine for HEK293; RPMI, 10% FBS, 100 units/ml Penicillin, 100 ug/ml streptomycin, 53 ug/ml glutatmine, 10 ug/ml insulin, 10 mM HEPEs, 200 nM Sodium Pyruvate for T47D cells) and grown overnight at 37° C. in 5% CO2. For cell viability curves, 1:3 serially diluted payloads were added to the cells at final concentrations ranging from 100 nM to […], including a no treatment control group, and were then incubated for 5 days. After the 5-day incubation, cells were incubated at room temperature with 100 μL of CellTiter-Glo reagents for 10 minutes. Relative luminescence units (RLU) were determined on a Victor plate reader (PerkinElmer). The IC50 values were determined from a four-parameter logistic equation over a 10-point response curve (GraphPad Prism). All IC50 values are expressed in molar (M) concentration. The percent cell killing (% kill) at the maximum concentration tested was estimated from the following formula (100−% viable cells). Averages±standard deviation (SD) are included where replicate experiments were performed.
In vitro cytotoxicity of the disclosed payloads as well as reference compounds were evaluated similarly as described above except using 1000 HCT15 cells, a colorectal carcinoma cell line, in growth medium (RPMI, 10% FBS, 100 units/ml Penicillin, 100 ug/ml streptomycin, 53 ug/ml glutatmine) with or without 5 ug/mL of Verapamil.

C4-2 cells = assay: Cell-based killing assay of payloads (CellTiter-Glo), C4-2 cells; design: species or system human; details: 5-day incubation; for IC50: Homo sapiens, C4-2, 120 h, average ± SD where replicates; for C4-2 % Kill: at maximum concentration tested (100 − % viable cells)
Procedure: as §1

HCT-15 cells = assay: Cytotoxicity in panel of MDR cell lines, HCT-15 (72 h and 144 h); type: cell-based, human; details: for IC50: Homo sapiens
Procedure: as §1
(§2) To further test the ability of the disclosed tubulysin payloads, a cytotoxicity assay was performed using a panel of multidrug resistant (MDR) cell lines. In vitro cytotoxicity of the disclosed payloads as well as reference compounds were similarly evaluated as described above except using HCT-15 cells, a colorectal carcinoma cell line; H69AR, a doxorubicin resistant MDR derivative of the small cell lung cancer carcinoma cell line NCI-H69; MES-SA/MX2, a mitoxantrone resistant MDR derivative of the uterine sarcoma cell line MES-SA; and HL60/MX2, a mitoxantrone resistant MDR derivative of the acute promyelocytic leukemia cell line HL60. In these assays, cytotoxicity was evaluated in normal growth media (RPMI, 10% FBS, 100 units/ml Penicillin, 100 ug/ml streptomycin, and 53 ug/ml glutatmine for HCT-15 and HL60/MX2; RPMI, 20% FBS, 100 units/ml Penicillin, 100 ug/ml streptomycin, and 53 ug/ml glutatmine for H69-AR; Waymouths's:McCoy's (1:1), 10% FBS, 100 units/ml Penicillin, 100 ug/ml streptomycin, and 53 ug/ml glutatmine for MES-SA/MX2) with 1000 cells per well following 72 h and 144 h incubation with payloads.

H69AR cells = assay: Cytotoxicity in panel of MDR cell lines, H69AR (72 h and 144 h); type: cell-based, human; details: for IC50: Homo sapiens
Procedure: as §1, §2

MES-SA/MX2 cells = assay: Cytotoxicity in panel of MDR cell lines, MES-SA/MX2 (72 h and 144 h); type: cell-based, human; details: for IC50: Homo sapiens
Procedure: as §1, §2

HL60/MX2 cells = assay: Cytotoxicity in panel of MDR cell lines, HL60/MX2 (72 h and 144 h); type: cell-based, human; details: for IC50: Homo sapiens
Procedure: as §1, §2

[1] = with 5 ug/mL Verapamil, read-out: HCT-15 + verapamil IC50
[2] = Homo sapiens, HCT-15, without Verapamil, read-out: HCT-15 IC50
[3] = with 5 ug/mL Verapamil, read-out: HCT-15 + verapamil IC50 (value in brackets)
[4] = Homo sapiens, HCT-15, without Verapamil, read-out: HCT-15 IC50 (value in brackets)
[5] = 72 h incubation, read-out: HCT-15 IC50 72 h
[6] = 144 h incubation, read-out: HCT-15 IC50 144 h
[7] = 72 h incubation, read-out: H69AR IC50 72 h
[8] = 144 h incubation, read-out: H69AR IC50 144 h

Row | SMILES | HCT-15 + verapamil % Kill (HCT15 cells; with 5 ug/mL Verapamil) | IC50 (HCT15 cells; [1]) | HCT-15 % Kill (HCT15 cells; without Verapamil) | IC50 (HCT15 cells; [2]) | IC50 (C4-2 cells) | C4-2 % Kill (C4-2 cells) | also measured
1 | CC[C@H](C)[C@H](NC(=O)[C@H]1CCCCN1C)C(=O)N(CCCCc1cn(CCCC(=O)O)nn1)[C@H](C[C@@H](OC(C)=O)c1nc(C(=O)N[C@@H](Cc2ccc(N)cc2)CC(C)(C)C(=O)O)cs1)C(C)C [IVn, (S)-4-(2-((1R,3R)-1-Acetoxy-3-((2S,3S)—N-(4-(1-(3-carboxypropyl)-1H-1,2,3-triazol-4-yl)butyl)-3-methyl-2-((R)-1-methylpiperidine-2-carboxamido)pentanamido)-4-methylpentyl)thiazole-4-carboxamido)-5-(4-aminophenyl)-2,2-dimethylpentanoic acid] | 72.4% | > 30 nM | 30.9% | > 30 nM | > 100 nM | 30.2% | 
2 | CCCCCCN(C(=O)[C@@H](NC(=O)[C@H]1CCCCN1C)[C@@H](C)CC)[C@H](C[C@@H](OC(C)=O)c1nc(C(=O)N[C@H](Cc2ccc(N)c(F)c2)CC(C)(C)C(=O)O)cs1)C(C)C [IVvA, 4-({2-[(1R,3R)-1-(Acetyloxy)-3-[(2S,3S)—N-hexyl-3-methyl-2-{[(2R)-1-methylpiperidin-2-yl]formamido}pentanamido]-4-methylpentyl]-1,3-thiazol-4-yl}formamido)-5-(4-amino-3-fluorophenyl)-2,2-dimethylpentanoic acid] | 97.1% | 1.97 nM | 99.2% | 5.27 nM | 10.9 nM | 96.7% | 
3 | CCCCCCON(C(=O)[C@@H](NC(=O)[C@H]1CCCCN1C)[C@@H](C)CC)[C@H](C[C@@H](OC(=O)NCCC)c1nc(C(=O)N[C@@H](Cc2ccc(O)cc2)C[C@H](C)C(=O)O)cs1)C(C)C [VIc, (2S,4R)-5-(4-Hydroxyphenyl)-4-(2-((7R,9R)-9-isopropyl-10-((2S,3S)-3-methyl-2-((R)-1-methylpiperidine-2-carboxamido)pentanoyl)-5-oxo-6,11-dioxa-4,10-diazaheptadecan-7-yl)thiazole-4-carboxamido)-2-methylpentanoic acid] | 98.8% | 0.286 nM | 94% | 13.2 nM | 1.33 nM | 95.5 ± 1.8% | 
4 | C#CCCCON(C(=O)[C@@H](NC(=O)[C@H]1CCCCN1C)[C@@H](C)CC)[C@H](C[C@@H](OC(C)=O)c1nc(C(=O)N[C@@H](Cc2ccc(O)cc2)CC(C)(C)C(=O)O)cs1)C(C)C [IX, (4S)-4-({2-[(1R,3R)-1-(Acetyloxy)-4-methyl-3-[(2S,3S)-3-methyl-2-{[(2R)-1-methylpiperidin-2-yl]formamido}-N-(pent-4-yn-1-yloxy)pentanamido]pentyl]-1,3-thiazol-4-yl}formamido)-5-(4-hydroxyphenyl)-2,2-dimethylpentanoic acid] |  |  |  |  | 0.054 nM |  | IC50 (HCT15 cells; [3]): 0.162 nM; IC50 (HCT15 cells; [4]): 0.171 nM
5 | CCCCCCON(C(=O)[C@@H](NC(=O)[C@H]1CCCCN1C)[C@@H](C)CC)[C@H](C[C@@H](OC(=O)NC)c1nc(C(=O)N[C@@H](Cc2ccc(O)cc2)C[C@H](C)C(=O)O)cs1)C(C)C [VIa, (2S,4R)-5-(4-Hydroxyphenyl)-4-(2-((5R,7R)-7-isopropyl-8-((2S,3S)-3-methyl-2-((R)-1-methylpiperidine-2-carboxamido)pentanoyl)-3-oxo-4,9-dioxa-2,8-diazapentadecan-5-yl)thiazole-4-carboxamido)-2-methylpentanoic acid] | 98.4 ± 0.7% | 0.255 nM | 97 ± 1.9% | 5.8 nM | 1.86 nM | 94.1% | HCT-15 % Kill 72 h (HCT-15 cells; 72 h incubation): 94%; HCT-15 % Kill 144 h (HCT-15 cells; 144 h incubation): 98.9%; IC50 (HCT-15 cells; [5]): 5.42 nM; IC50 (HCT-15 cells; [6]): 7.17 nM; H69AR % Kill 72 h (H69AR cells; 72 h incubation): 83.5%; H69AR % Kill 144 h (H69AR cells; 144 h incubation): 91.6%; IC50 (H69AR cells; [7]): 16 nM; IC50 (H69AR cells; [8]): 80.1 nM
6 | CCCC(=O)OCN(C(=O)[C@@H](NC(=O)[C@H]1CCCCN1C)[C@@H](C)CC)[C@H](C[C@@H](OC(C)=O)c1nc(C(=O)N[C@@H](Cc2ccc(O)cc2)C[C@H](C)C(=O)O)cs1)C(C)C [reference compound] | 99.1% | 0.128 nM | 99.1% | 0.509 nM | 0.109 nM | 96.4% | MES-SA/MX2 % Kill 72 h (MES-SA/MX2 cells; 72 h incubation): 98.6%; MES-SA/MX2 % Kill 144 h (MES-SA/MX2 cells; 144 h incubation): 99.9%; IC50 (MES-SA/MX2 cells; 72 h incubation, read-out: MES-SA/MX2 IC50 72 h): 0.573 nM; IC50 (MES-SA/MX2 cells; 144 h incubation, read-out: MES-SA/MX2 IC50 144 h): 1.33 nM; HL60/MX2 % Kill 72 h (HL60/MX2 cells; 72 h incubation): 98%; HL60/MX2 % Kill 144 h (HL60/MX2 cells; 144 h incubation): 100%; IC50 (HL60/MX2 cells; 72 h incubation, read-out: HL60/MX2 IC50 72 h): < 0.015 nM; IC50 (HL60/MX2 cells; 144 h incubation, read-out: HL60/MX2 IC50 144 h): < 0.015 nM
7 | CCCCCCN(C(=O)[C@@H](NC(=O)[C@H]1CCCCN1C)[C@@H](C)CC)[C@H](C[C@@H](OC(C)=O)c1nc(C(=O)N[C@@H](Cc2ccc(O)c(N)c2)CC(C)(C)C(=O)O)cs1)C(C)C [IVw, (S)-4-(2-((1R,3R)-1-Acetoxy-3-((2S,3S)—N-hexyl-3-methyl-2-((R)-1-methylpiperidine-2-carboxamido)pentanamido)-4-methylpentyl)thiazole-4-carboxamido)-5-(3-amino-4-hydroxyphenyl)-2,2-dimethylpentanoic acid] | 98.3% | 4.49 nM | 95.9% | 9.73 nM | > 100 nM | 27.9% | 
8 | CCCCCCN(C(=O)[C@@H](NC(=O)[C@H]1CCCCN1C)[C@@H](C)CC)[C@H](C[C@@H](OC(C)=O)c1nc(C(=O)N[C@@H](Cc2ccc(F)cc2)C[C@H](C)C(=O)O)cs1)C(C)C [IVa, (2S,4R)-4-(2-((1R,3R)-1-Acetoxy-3-((2S,3S)—N-hexyl-3-methyl-2-((R)-1-methylpiperidine-2-carboxamido)pentanamido)-4-methylpentyl)thiazole-4-carboxamido)-5-(4-fluorophenyl)-2-methylpentanoic acid] |  |  |  |  | 0.0653 nM | 95.2% | HCT-15 % Kill 72 h (HCT-15 cells; 72 h incubation): 97.8%; HCT-15 % Kill 144 h (HCT-15 cells; 144 h incubation): 99.6%; IC50 (HCT-15 cells; [5]): 0.166 nM; IC50 (HCT-15 cells; [6]): 0.318 nM; H69AR % Kill 72 h (H69AR cells; 72 h incubation): 96.1%; H69AR % Kill 144 h (H69AR cells; 144 h incubation): 99.3%; IC50 (H69AR cells; [7]): 0.749 nM; IC50 (H69AR cells; [8]): 1.38 nM
9 | CCCCCON(C(=O)[C@@H](NC(=O)[C@H]1CCCCN1C)[C@@H](C)CC)[C@H](C[C@@H](OC(C)=O)c1nc(C(=O)N[C@@H](Cc2ccc(O)cc2)CC(C)(C)C(=O)O)cs1)C(C)C [X, (4S)-4-({2-[(1R,3R)-1-(Acetyloxy)-4-methyl-3-[(2S,3S)-3-methyl-2-{[(2R)-1-methylpiperidin-2-yl]formamido}-N-(pentyloxy)pentanamido]pentyl]-1,3-thiazol-4-yl}formamido)-5-(4-hydroxyphenyl)-2,2-dimethylpentanoic acid] |  |  |  |  | 0.06 nM |  | IC50 (HCT15 cells; [3]): 0.116 nM; IC50 (HCT15 cells; [4]): 0.097 nM
